Source: patent publication US12083093B2, “Composition for preventing or treating cellular senescence-related diseases comprising salinomycin as effective component” (RESEARCH COOPERATION FOUNDATION OF YEUNGNAM UNIVERSITY, priority 2018, dated 2024)

Columns and labels:
[1] = system: replicative senescent vascular endothelial cells (HUVEC); assay: CCK-8 cell survival, replicative senescent HUVEC; type: cell-based, human; details: according to concentration of salinomycin; FIG. 4C
Description: After dispensing 2×10^5 cells in a 100 mm culture dish, they were cultured in a 37° C., 5% CO2 incubator. When the cells grew to 80-90% in the culture dish, the cells were removed by treatment with trypsin-EDTA, and the number of cells was measured, and the cell population doubling time (PDT) was measured.
By successively subculturing the cells in the same process as described above, replication aging was induced. PDT of young fibroblasts was 36 hours, PDT of replicative senescent fibroblasts was 12 days, PDT of young vascular endothelial cells was 24 hours, and PDT of replicative senescent vascular endothelial cells was 7 days.
After each sample was dissolved in DMSO, young cells, replicative senescent cells and senescent cells in which premature aging was induced by treating with doxorubicin were treated with 100 nM salinomycin, 100 nM rapamycin, 100 nM ABT263. […]
(§1) Young cells (1×10^3 cells/well) or senescent cells (2×10^3 cells/well) were dispensed into a 96-well plate, and cultured overnight in a 37° C., 5% CO2 incubator. […] Then, the absorbance was measured at 450 nm using a Microplate reader.
The degree of cell survival was expressed as a relative value for the absorbance of the control group treated with only DMSO as 100%.

[2] = system: premature senescent retinal pigmented epithelial cells (ARPE) by doxorubicin; assay: CCK-8 cell survival, doxorubicin-induced premature senescent retinal pigmented epithelial cells; type: cell-based, human; details: 100 nM, 4 days; compared to DMSO-treated group; FIG. 5A, 5B
Description: (§2) Each cell was treated in a serum-free culture solution containing doxorubicin (0.5 μM) for 4 hours. After washing the cells with a serum-free culture solution, the cells were cultured for 4 days in a culture solution containing 10% FBS, and then cellular aging was confirmed by measuring the level of senescence by staining with senescence-associated beta galactosidase.
(§3) After each sample was dissolved in DMSO, young cells, replicative senescent cells and senescent cells in which premature aging was induced by treating with doxorubicin were treated with 100 nM salinomycin, 100 nM rapamycin, 100 nM ABT263. After incubation for 4 days in a 37° C., 5% CO2 incubator, the degree of cell survival was confirmed by CCK-8 analysis, the degree of cellular aging was confirmed by senescence-associated β-galactosidase (SAβG) staining, p53 and p16 protein expression analysis.
as §1, with “incubator. Salinomycin, ABT263 and rapamycin were treated at each concentration, and then incubated for 4 days in a 37° C., 5% CO2 incubator.” for “incubator.”
(§4) The degree of cell survival was expressed as a relative value for the absorbance of the control group treated with only DMSO as 100%. […]

[3] = system: premature senescent renal tubular cells (HK2) by doxorubicin; assay: CCK-8 cell survival, doxorubicin-induced premature senescent HK2 cells; type: cell-based, human; details: 100 nM, 4 days; compared to DMSO-treated group; FIG. 6A-6C
Description: as §2, §3
as §1, with “incubator. Salinomycin, ABT263 and rapamycin were treated at each concentration, and then incubated for 4 days in a 37° C., 5% CO2 incubator.” for “incubator.”
as §4

[4] = system: pulmonary fibrosis induced by bleomycin; type: in vivo, C57BL/6J mice; details: compared to PBS group
Description: Animal experiments were conducted with the approval of the Animal Experimental Ethics Committee, Yeungnam University College of Medicine (YUMC-AEC2018-025). After anesthetizing by injecting 2.5% avertin (Avertin; 0.025 ml/g) into the abdominal cavity of 10-week-old C57BL/6J male mice, 2 mU/g of bleomycin was instilled into the bronchi and injected into the lungs.
From 5 days after bleomycin administration, 2.5 μl of 10 mM salinomycin was diluted in 100 μl phosphate buffer solution at intervals of 3 days and injected intraperitoneally 6 times (Sal group).
Three mice were used for each group, and lungs were excised by sacrifice 22 days after bleomycin injection and fixed in 10% formalin solution or stored frozen in liquid nitrogen.
(§5) The tissue fixed in 10% formalin solution was embedded with paraffin and cut into 4 μm to prepare a tissue sample. After removing paraffin from the tissue sample, hematoxylin-eosin staining, trichrome staining, and PAS staining were performed.
(§6) The degree of fibrosis was measured by analyzing the degree of collagen staining using the i-Solution™ software program (IMT Inc., Canada) after trichrome staining and the degree of cell senescence in tissue samples was investigated by staining lipofuscin with Sudan black B (Viegas M S, et al., European journal of histochemistry: EJH. 2007). The degree of peritoneal fibrosis was confirmed by measuring the submesothelial thickness of the peritoneal mesothelial cell layer using the NIH Image J program.
In addition, lung tissue samples were prepared, and hematoxylin-eosin staining and trichrome staining were performed to confirm the degree of damage to the lung tissue and the degree of lung fibrosis.

[5] = system: peritoneal fibrosis induced by chlorhexidine gluconate (CHG); assay: Peritoneal fibrosis induced by chlorhexidine gluconate (CHG) in mice; type: in vivo, C57BL/6J mice; details: compared to DMSO group, FIG. 9C, 9D
Description: Animal experiments were conducted with the approval of the Animal Experimental Ethics Committee of Yeungnam University College of Medicine (YUMC-AEC2018-033). Peritoneal fibrosis mice experiments were performed using a model of peritoneal fibrosis induced by chlorhexidine gluconate (CHG) (Yoshio Y et al., Kidney international. 2004).
From the 9th day, 2.5 μl of 10 mM salinomycin (Sal group) or 2.5 μl of DMSO (DMSO group) was diluted in 100 μl phosphate buffer solution and intraperitoneally injected at intervals of 2 days.
As a negative control (NT group), 100 μl of a 15% ethanol phosphate buffer solution was injected intraperitoneally instead of a 0.1% CHG solution. On the 20th day, the mice were sacrificed, the peritoneal tissue was excised, and the tissue was fixed in 4% paraformaldehyde solution.
as §5
as §6, with “The degree of peritoneal fibrosis was confirmed by measuring the submesothelial thickness of the peritoneal mesothelial cell layer using the NIH Image J program.” left out

For CC[C@@H](C(=O)[C@@H](C)[C@@H](O)[C@H](C)[C@@H]1O[C@@H]([C@@H](CC)C(=O)O)CC[C@@H]1C)[C@H]1O[C@]2(C=C[C@@H](O)[C@]3(CC[C@@](C)([C@H]4CC[C@](O)(CC)[C@H](C)O4)O3)O2)[C@H](C)C[C@@H]1C [salinomycin], the “cell survival (CCK-8)” value [1] was “did not affect”, the “cell survival (CCK-8)” value [2] was “significantly (p<0.01) reduced” and the “survival (CCK-8)” value [3] was “no change”. For the same molecule, the “degree of lung tissue damage” value ([4]; hematoxylin-eosin staining, FIG. 8C, 8D) was “statistically significantly reduced”, the body weight ([4]; i.p. 6 times at 3-day intervals, FIG. 8B) was “further increased” and the “degree of lung fibrosis” value ([4]; trichrome staining, FIG. 8C, 8D) was “statistically significantly reduced”. The “thickness of the peritoneal mesothelial cell layer” value ([5]; 2.5 μl of 10 mM salinomycin in 100 μl phosphate buffer i.p. at 2-day intervals from 9th day) was “significantly reduced” and the “degree of peritoneal fibrosis” value ([5]; i.p. at 2-day intervals from 9th day) was “decreased”.
